Data as given in US20180280485A1, “THIORETINAMIDE COMPOSITIONS FOR THE APOPTOSIS OF MALIGNANT CELLS WHILE PREVENTING THE APOPTOSIS OF NORMAL CELLS AND RELATED METHODS” (priority 2017, published 2018).

Assays:
[1] = tested on: Caenorhabtidis elegans; details: exposure to diallyl trisulfide; cited from earlier work
[2] = tested on: human colon carcinoma cells; details: in vitro; read-out: inhibitory concentration (IC50) against proliferation; cited from earlier work
[3] = tested on: human adenocarcinoma cells; assay: Growth of cultured human adenocarcinoma cells (Example 7); type: cell-based; details: for cell growth (10^5): cell number day 4, 10^5 cells passaged day 0, no addition 7.4 ± 2.7; for cell growth (10^5) / cell growth (% of control): TR2Co/TR 30 mg/dL, DATS/NBS 1.0 mg/dL; for cell growth (% of control): day 4; for inhibition of growth of cultured human adenocarcinoma cells: each compound alone, Table 2
Protocol: Human adenocarcinoma cells were cultured in RPMI medium with added fetal bovine serum and antibiotics, as reported by McCully K S et al in Research Communications in Chemical Pathology and Pharmacology, 1992; 77: 125-128 and reviewed by Ariga T et al in Biofactors 2006; 26: 93-103. Equal numbers (10^5) of adenocarcinoma cells were trypsinized and passaged on day 0, and the cells were refed with media containing test compounds on days 1 and 3. Cell numbers were determined by trypsinization on day 4. Thioretinaco (TR2Co) and thioretinamide (TR) were synthesized, as previously described (McCully U.S. Pat. No. 4,618,685; McCully U.S. Pat. No. 4,925,931) and dissolved in absolute ethanol. Authentic diallyl trisulfide ([…]) and napabucasin (NBS) were solubilized in propylene glycol. Propylene glycol (PG) was added to the ethanol solutions of the test compounds, the ethanol was evaporated under reduced pressure at 37° C., and the resulting solutions in propylene glycol were added to the culture media.

[4] = tested on: Normal control cell lines; details: versus human leukemia and myeloma cell lines; cited from earlier work
[5] = Toxicity in animal tests or human trials; type: in vivo; details: 7.5 mg/70 kg/day to 300 mg/70 kg/day
[6] = tested on: human pancreatic adenocarcinoma cells; details: in vitro, cited from earlier work; for growth of cells: without cellular degeneration
[7] = tested on: normal fibroblasts; details: in vitro; cited from earlier work

| Compound | increase of lifespan [1] | IC50 [2] | cell growth (10^5) [3] | cell growth (% of control) [3] | inhibition of growth of cultured human adenocarcinoma cells [3] | increase in concentration required to produce apoptosis and growth inhibition in normal control cell lines [4] | toxicity (weight loss, nausea, impairment of liver function, headache, skin lesions) [5] | growth of cells [6] | lactate production [6] | growth and lactate production [7] |
| --- | --- | --- | --- | --- | --- | --- | --- | --- | --- | --- |
| C=CCSSSCC=C [DATS, diallyl trisulfide, reference compound] | approximately 12% | 5 µM | 2.7 ± 0.57 10^5 | 36 % of control | significantly inhibit growth |  |  |  |  |  |
| Cc1cc2c(o1)C(=O)c1ccccc1C2=O [FHQ3, 2-methyl-naphtho[2,3-b]furan-4,9 dione] |  |  |  |  |  | 10 fold |  |  |  |  |
| O=C(O)Cc1cc2c(o1)C(=O)c1ccccc1C2=O [NBS, 2-carboxymethyl-naphtho[2,3-b]furan-4,9-dione, reference compound] |  |  | 2.3 ± 0.52 10^5 | 28 % of control | significantly inhibit growth |  |  |  |  |  |
| CC1=C(/C=C/C(C)=C/C=C/C(C)=C/C(=O)NC2CCSC2=O)C(C)(C)CCC1 (centres unmarked) [TR, N-homocysteine thiolactonyl retinamide] |  |  | 1.4 ± 0.50 10^5 | 19 % of control | significantly inhibit growth |  | no evidence of toxicity | inhibited | increased | unaffected |
| CC1=C(/C=C/C(C)=C/C=C/C(C)=C/CO)C(C)(C)CCC1 [retinol, reference compound] |  |  |  |  |  |  | no evidence of toxicity |  |  |  |
| N-homocysteine thiolactonyl retinamido cobalamin [TR2Co] |  |  | 2.5 ± 0.82 10^5 | 33 % of control | significantly inhibit growth |  |  | inhibited | increased | unaffected |
